From patent publication US20090233973A1, “EPOTHILONE DERIVATIVES FOR THE TREATMENT OF MULTIPLE MYELOMA” (priority 2002, published 2009)

Key:
Type in all cases: cell-based, human
MM cells [1] = assay: Cell cycle analysis (propidium iodide, flow cytometry)
Procedure: MM cells (1×10^6 cells) are cultured in the presence of Epothilone B or DMSO control for 24, 48 and 72 h. Cells are then washed with phosphate buffered saline (PBS), fixed with 70% ethanol, and treated with RNAse (Sigma). Cells are next stained with propidium iodide (PI, 5 μg/mL), and the cell cycle profile is determined using the M software on an Epics flow cytometer (Coulter Immunology, Hialeah, Fla.).

MM cells [2] = assay: Proliferation ([3H]-thymidine) and cell viability (MTS) assays
Procedure: RPMI 8226 and U266 human MM cell lines can be obtained from the American Type Culture Collection (ATCC) of Rockville, Md. Patient derived MM cells are purified from patient BM samples, as described by Y. T. Tai, G. Teoh, Y. Shima, et al in J. Immunol. Methods 235:11, 2000. All human MM cell lines are cultured in RPMI-1640 media (Sigma Chemical, St. Louis, Mo.), containing 10% fetal bovine serum (FBS), 2 mmol/L L-glutamine (L-glut, GIBCO, Grand Island, N.Y.), 100 U/mL penicillin and […] streptomycin (P/S, GIBCO). MM patient cells are >95% CD38+, CD45RA−. […]
MM cells are first starved for 12 h in RPMI-1640 media containing […], and then plated into 96-well microtiter plates (Costar, Cambridge, Mass.), in the presence of drug or DMSO control. […] Proliferation is measured by the incorporation of [^3H]-thymidine (NEN Products, Boston, Mass.). Specifically, cells are pulsed with [^3H]-thymidine (0.5 μCi/well) for the last 6 h of 48 h cultures, harvested onto glass filters with an automatic cell harvester (Cambridge Technology, Cambridge, Mass.), and counted using a LKB Betaplate scintillation counter (Wallac, Gaithersburg, Md.). […] Cells are exposed to the MTS for the last 2 h of 48 h cultures, and absorbance is measured using an ELISA plate reader (Molecular Devices Corp., Sunnyvale, Calif.) at OD of 570 nm.

MM.1S cells = assay: Proliferation of MM cells in a modified Boyden chamber transwell co-culture system with BMSCs; conditions: 48 h
Procedure: Proliferation is measured in a modified Boyden chamber transwell system, using 24-well plates with a […] pore size inserts (Costar). BMSCs (4×10^4 cells/well) are plated in the lower chamber, starved, and incubated in an epothilone as described above. MM cells (20×10^4 cells/ml) are then placed in the upper chamber (insert), and [^3H]-thymidine uptake in the individual chambers is measured at 48 h as described above.
MM.1S cells are placed in the upper chamber of a transwell co-culture system in order to preclude direct contact between MM cells and BMSCs, but nonetheless allow for diffusion of humoral factors. Despite the lack of contact between the two cell types, uptake of [^3H]-dT by MM.1S cells incubated with BMSCs is increased by 2.2-fold (p<0.0001) at 48 h.

**Q.** How did the “cell cycle effect / apoptosis” value (MM cells [1]) turn out when C/C(=C\c1csc(C)n1)[C@@H]1C[C@@H]2O[C@]2(C)CCC[C@H](C)[C@H](O)[C@@H](C)C(=O)C(C)(C)[C@@H](O)CC(=O)O1 [epothilone B] was run?
**A.** Its value is “induces G2M arrest in MM cells with subsequent apoptosis”.

**Q.** What about the “growth and survival of myeloma cells” value (MM cells [2]) of the same compound?
**A.** The value was “directly inhibit the growth and survival of myeloma cells”.

**Q.** What about the “proliferation of MM.1S cells ([3H]-dT uptake)” value (MM.1S cells) of the same compound?
**A.** The value was “reduces proliferation of MM.1S cells”.
